Data on twelve compounds can be found in patent US20260365634A1, “HERBICIDAL PYRAZOLE COMPOUNDS” (SYNGENTA CROP PROTECTION AG, priority 2022, published 2026).

SMILES strings stand for the structures.

Type in all cases: in vivo
Holding throughout (settings): 250 g/ha, evaluated after 13 days

Assay [1] concerns Setaria faberi (SETFA). Description: Post-emergence herbicidal glasshouse test. The method, then:
(§1) Seeds of a variety of test species are sown in standard soil in pots Amaranthus palmeri (AMAPA), Amaranthus retoflexus (AMARE), Echinochloa crus-galli (ECHCG), Ipomoea hederacea (IPOHE), Setaria faberi (SETFA). After cultivation for one day (pre-emergence) or after 8 days cultivation (post-emergence) under controlled conditions in a glasshouse (at 24/16 °C, day/night; 14 hours light; 65% humidity), the plants are sprayed with an aqueous spray solution derived from the formulation of the technical active ingredient in acetone/water (50:50) solution containing 0.5% Tween 20 (polyoxyethelyene sorbitan monolaurate, CAS RN 9005-64-5). Compounds are applied at 250 g/ha unless otherwise stated. The test plants are then grown in a glasshouse under controlled conditions in a glasshouse (at 24/16 °C, day/night; 14 hours light; 65% humidity) and watered twice daily. After 13 days for pre and post-emergence, the test is evaluated for the percentage damage caused to the plant. The biological activities are shown in the following table on a five-point scale (5=81-100%; 4=61-80%; 3=41-60%; 2=21-40%; 1=0-20%).

Assay [2] has as its system Amaranthus palmeri (AMAPA). Briefly: Post-emergence herbicidal glasshouse test. The method, then:
as §1

The subject of assay [3] is Echinochloa crus-galli (ECHCG). Briefly: Post-emergence herbicidal glasshouse test. The method, then:
as §1

In assay [4] the test system is Amaranthus retoflexus (AMARE). Briefly: Post-emergence herbicidal glasshouse test. How it is done:
as §1

The subject of assay [5] is Ipomoea hederacea (IPOHE). Description: Post-emergence herbicidal glasshouse test. The method, then:
as §1

Assay [6] deals with Setaria faberi (SETFA). Description: Pre-emergence herbicidal glasshouse test. The method, then:
as §1

The subject of assay [7] is Amaranthus palmeri (AMAPA). Briefly: Pre-emergence herbicidal glasshouse test. How it is done: as §1
Assay [8] has as its system Echinochloa crus-galli (ECHCG). Description: Pre-emergence herbicidal glasshouse test. How it is done:
as §1

The test system of assay [9] is Amaranthus retoflexus (AMARE). Briefly: Pre-emergence herbicidal glasshouse test. The method, then: as §1
The test system of assay [10] is Ipomoea hederacea (IPOHE). Briefly: Pre-emergence herbicidal glasshouse test. The method, then:
as §1

Consider `FC(F)(F)c1cc(Cc2ncc(Cl)cn2)n(C2CCCC2)n1` [Compound 1.028], for which the results for the “percentage damage caused to the plant (five-point scale), SETFA” value (“percentage damage caused … SETFA” for short) in the assay with Setaria faberi (SETFA) [1] and in the assay with Setaria faberi (SETFA) [6] were 2 (21-40%) and 5 (81-100%), respectively. Moreover, the entries for the “percentage damage caused to the plant (five-point scale), AMAPA” value (shortened to “percentage damage caused … AMAPA”) in assay [2] and in assay [7] were 2 (21-40%) and 5 (81-100%), respectively. Also, the “percentage damage caused to the plant (five-point scale), ECHCG” value (“percentage damage caused … ECHCG” below) in assay [3] and in assay [8] was 2 (21-40%) throughout. The entries for the “percentage damage caused to the plant (five-point scale), AMARE” value (from here on “percentage damage caused … AMARE”) in assay [4] and in assay [9] were 4 (61-80%) and 5 (81-100%), respectively. Moreover, the “percentage damage caused to the plant (five-point scale), IPOHE” value (shortened to “percentage damage caused … IPOHE”) in assay [5] is on record as 3 (41-60%); in assay [10], 1 (0-20%).
For the compound `FC(F)c1cc(Cc2ncc(Cl)cn2)n(CCC2CCOC2)n1` (stereo not drawn) [Compound 1.001], the results for the “percentage damage caused … AMAPA” value in assay [2] and in assay [7] were 1 (0-20%) and 2 (21-40%), respectively. The “percentage damage caused … ECHCG” value in assay [3] and in assay [8] was 1 (0-20%) throughout. Also, the “percentage damage caused … AMARE” value in assay [4] and in assay [9] was 1 (0-20%) in each case. For the same compound, the “percentage damage caused … IPOHE” value in [5] and in [10] was 2 (21-40%) each time.
Consider `FC(F)CCCn1nc(C(F)(F)F)cc1Cc1ncc(Cl)cn1` [Compound 1.005, 5-chloro-2-[[2-(4,4-difluorobutyl)-5-(trifluoromethyl)pyrazol-3-yl]methyl]pyrimidine], for which the “percentage damage caused … SETFA” value was 4 (61-80%) in the assay with Setaria faberi (SETFA) [1] and 5 (81-100%) in the assay on Setaria faberi (SETFA) [6]. The “percentage damage caused … ECHCG” value in assay [3] and in [8] was 4 (61-80%) throughout. Also, the “percentage damage caused … AMARE” value in [4] and in assay [9] was 5 (81-100%) in each case. Besides, the figures for the “percentage damage caused … IPOHE” value in [5] and in assay [10] were 3 (41-60%) and 5 (81-100%), respectively. Besides, in assay [7], the “percentage damage caused … AMAPA” value was 5 (81-100%).
As to `N#CC1(Cn2nc(C(F)(F)F)cc2Cc2ncc(Cl)cn2)CC1` [Compound 1.022], the “percentage damage caused … SETFA” value in the assay on Setaria faberi (SETFA) [1] is listed as 1 (0-20%); with Setaria faberi (SETFA) [6] it was 4 (61-80%). Moreover, the “percentage damage caused … AMAPA” value in assay [2] and in assay [7] was 4 (61-80%) in each case. Also, the “percentage damage caused … ECHCG” value is 1 (0-20%) in [3] and 3 (41-60%) in [8]. Moreover, the figures for the “percentage damage caused … AMARE” value in assay [4] and in [9] were 4 (61-80%) and 5 (81-100%), respectively. Besides, the “percentage damage caused … IPOHE” value is listed as 4 (61-80%) in assay [5] and 5 (81-100%) in [10].
On to `CCCCn1nc(C(F)(F)Cl)cc1Cc1ncc(Cl)cn1` [Compound 1.020, 2-[[2-butyl-5-[chloro(difluoro)methyl]pyrazol-3-yl]methyl]-5-chloro-pyrimidine], for which the “percentage damage caused … SETFA” value in the assay with Setaria faberi (SETFA) [1] is on record as 1 (0-20%); in the assay with Setaria faberi (SETFA) [6], 4 (61-80%). For the same compound, the results for the “percentage damage caused … AMAPA” value in assay [2] and in [7] were 4 (61-80%) and 5 (81-100%), respectively. Further, the “percentage damage caused … ECHCG” value in assay [3] is 2 (21-40%); in assay [8], 4 (61-80%). The “percentage damage caused … AMARE” value in assay [4] and in assay [9] was 5 (81-100%) throughout. Further, the “percentage damage caused … IPOHE” value in assay [5] and in assay [10] was 2 (21-40%) throughout.
Consider `FC(F)c1cc(Cc2ncc(Cl)cn2)n(CCC2CC2)n1` [Compound 1.003], for which the entries for the “percentage damage caused … AMAPA” value in [2] and in [7] were 1 (0-20%) and 4 (61-80%), respectively. The “percentage damage caused … ECHCG” value in assay [3] and in assay [8] was 1 (0-20%) in each case. The results for the “percentage damage caused … AMARE” value in assay [4] and in [9] were 1 (0-20%) and 4 (61-80%), respectively. The “percentage damage caused … IPOHE” value is given as 3 (41-60%) in assay [5] and 1 (0-20%) in assay [10].
Consider `FC(F)CCCn1nc(C(F)F)cc1Cc1ncc(Cl)cn1` [Compound 1.004], for which the results for the “percentage damage caused … AMAPA” value in assay [2] and in assay [7] were 3 (41-60%) and 4 (61-80%), respectively. Also, the “percentage damage caused … ECHCG” value in assay [3] and in assay [8] was 1 (0-20%) each time. In addition, the “percentage damage caused … AMARE” value is 3 (41-60%) in assay [4] and 4 (61-80%) in assay [9]. Also, the “percentage damage caused … IPOHE” value in [5] and in assay [10] was 2 (21-40%) each time.
Regarding `FC(F)(F)CCCn1nc(C(F)(F)F)cc1Cc1ncc(Cl)cn1` [Compound 1.006], the entries for the “percentage damage caused … SETFA” value in the assay with Setaria faberi (SETFA) [1] and in the assay with Setaria faberi (SETFA) [6] were 4 (61-80%) and 5 (81-100%), respectively. In addition, the “percentage damage caused … AMAPA” value in assay [2] and in [7] was 5 (81-100%) throughout. Also, the “percentage damage caused … ECHCG” value in assay [3] is on record as 3 (41-60%); in [8] it was 4 (61-80%). The “percentage damage caused … AMARE” value in [4] and in [9] was 5 (81-100%) throughout. Besides, the “percentage damage caused … IPOHE” value in assay [5] and in assay [10] was 3 (41-60%) in each case.
`FC(F)(F)CCn1nc(C(F)(F)F)cc1Cc1ncc(Cl)cn1` [Compound 1.010]: the “percentage damage caused … AMAPA” value in assay [2] is listed as 4 (61-80%); in assay [7] it was 5 (81-100%). The “percentage damage caused … ECHCG” value in [3] is 4 (61-80%); in [8], 5 (81-100%). The “percentage damage caused … AMARE” value in assay [4] and in [9] was 5 (81-100%) throughout. The “percentage damage caused … IPOHE” value is listed as 3 (41-60%) in [5] and 5 (81-100%) in [10].
For the compound `FC(F)c1cc(Cc2ncc(Cl)cn2)n(CCCC(F)(F)F)n1` [Compound 1.002], the “percentage damage caused … AMAPA” value in [2] is listed as 1 (0-20%); in assay [7], 5 (81-100%). Moreover, the “percentage damage caused … ECHCG” value in assay [3] and in assay [8] was 1 (0-20%) throughout. For the same compound, the “percentage damage caused … AMARE” value is listed as 2 (21-40%) in assay [4] and 5 (81-100%) in assay [9]. Further, the “percentage damage caused … IPOHE” value in [5] was 2 (21-40%); in assay [10], 3 (41-60%).
Take `FC(F)c1cc(Cc2ncc(Cl)cn2)n(CCC(F)(F)F)n1` [Compound 1.007]: the “percentage damage caused … AMAPA” value in assay [2] is reported as 3 (41-60%); in assay [7], 5 (81-100%). Besides, the “percentage damage caused … ECHCG” value in [3] and in assay [8] was 2 (21-40%) in each case. Moreover, the “percentage damage caused … AMARE” value is reported as 4 (61-80%) in assay [4] and 5 (81-100%) in assay [9]. Besides, the “percentage damage caused … IPOHE” value was 3 (41-60%) in assay [5] and 4 (61-80%) in [10].
Regarding `CCCCn1nc(C(F)F)cc1Cc1ncc(Cl)cn1` [Compound 1.011], the “percentage damage caused … AMAPA” value in [2] is reported as 2 (21-40%); in assay [7], 5 (81-100%). Further, the “percentage damage caused … ECHCG” value in [3] is given as 1 (0-20%); in [8] it was 2 (21-40%). In addition, the entries for the “percentage damage caused … AMARE” value in assay [4] and in assay [9] were 2 (21-40%) and 5 (81-100%), respectively. In addition, the “percentage damage caused … IPOHE” value is 2 (21-40%) in assay [5] and 3 (41-60%) in assay [10].
